Measured values published in patent US11564913B2, “Compositions and methods for treating cancer” (Children's Hospital Medical Center, priority 2019, dated 2023).

What was measured:
[1] = tested on: active Cdc42 in MDA-MB-231 cells; test: Active GTPase pull-down (GST-PAK-GBD); format: cell-based, human; settings: 0-3 μM, 1 h
Protocol: (§1) FIG. 5: Cytoskeletal changes induced by IODVA1 treatment. IODVA1 inhibits lamellipodia and circular dorsal ruffle (CDR) formation in MDA-MB-231 cells and decreases Rac activation. (A) IODVA1 inhibits EGF-induced lamellipodia formation in MDA-MB-231 cells. MDA-MB-231 cells were plated on fibronectin-coated coverslips, serum starved for 4 h, incubated with the indicated concentrations of IODVA1 for 1 h, then EGF (50 ng/mL) stimulated, fixed and stained with Phalloidin Alexa Fluor 594 (F-Actin, pseudocolored red) and DAPI (nuclei, pseudocolored blue). […] The percentage of cells with CDRs was counted as the number of cells with CDRs normalized to the total number of cells in the field. Around 150 cells were counted per condition per experiment. Cells with multiple CDRs were counted only once. […] Levels of active Rac (RacGTP, % of control), active Cdc42 (Cdc42GTP, % of control) and active RhoA (RhoAGTP, % of control) were quantified using ImageJ and ImageLab and show combined data as mean±s.e.m. from at least 3 independent experiments. […]
(§2) To confirm that IODVA1 interferes with Rac activation, applicants checked the levels of active Rac and its downstream effector PAK1/2. MDA-MB-231 cells were incubated with IODVA1 (0-3 μM) for 1 h and levels of GTP-bound active Rac were measured by GST-PAK-GBD pull-downs and quantified (FIG. 5C). […]

[2] = tested on: active Rac (RacGTP) in MDA-MB-231 cells; test: Active GTPase pull-down (GST-PAK-GBD); format: cell-based, human; settings: 0-3 μM, 1 h, dose-dependent
Protocol: as §1, §2

In the case of `OC1(c2ccccn2)N=C(Nc2nc3ccccc3[nH]2)N=C1c1ccccn1` (centres unmarked) [IODVA1, (Z)-2-((1H-benzo[d]imidazol-2-yl)imino)-4,5-di(pyridin-2-yl)-2,5-dihydro-1H-imidazol-5-ol], the “levels of active Cdc42” value [1] is reported as “decreased but only at the highest IODVA1 concentration” and the “levels of active Rac” value [2] is reported as “significantly decreases”.
